Test results published in PMC6829864, “Determination of Ligand Profiles for Pseudomonas aeruginosa Solute Binding Proteins” (International Journal of Molecular Sciences, 2019).
Entries after “also recorded” stand apart in the source; their conditions may differ. One block for each compound: values may come before it.

Key:
PA3889 (opuCC) [1] = biological target: T1, PA3889 (opuCC) (Pseudomonas aeruginosa, UniProt Q9HXC4); assay: DSF thermal shift ligand screening, PA3889; assay type: binding, Pseudomonas aeruginosa PAO1; conditions: Tm change vs ligand-free protein
PA3889 (opuCC) [2] = biological target: T1, PA3889 (opuCC); assay: Isothermal titration calorimetry, PA3889; assay type: binding, Pseudomonas aeruginosa PAO1; conditions: 25 °C
[3] = test system: Pseudomonas aeruginosa PAO1; assay type: cell-based; conditions: chemoeffector 1 mM, except molybdate 0.1 mM
PA1342 (aatJ) [4] = biological target: T2, PA1342 (aatJ) (Pseudomonas aeruginosa, UniProt Q9I402); assay type: binding; conditions: 25 °C
T2 sequence (Q9I402 24-302): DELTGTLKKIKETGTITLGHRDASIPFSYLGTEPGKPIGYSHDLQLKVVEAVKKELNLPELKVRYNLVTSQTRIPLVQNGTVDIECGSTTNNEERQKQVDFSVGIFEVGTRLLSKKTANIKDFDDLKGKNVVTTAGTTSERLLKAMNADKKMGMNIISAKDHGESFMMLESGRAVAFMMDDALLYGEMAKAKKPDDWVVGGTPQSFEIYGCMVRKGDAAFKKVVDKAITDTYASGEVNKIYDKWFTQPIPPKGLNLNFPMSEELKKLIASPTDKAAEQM

PA0222 [5] = biological target: T3, PA0222 (Pseudomonas aeruginosa, UniProt Q9I6R6); assay: Isothermal titration calorimetry, PA0222; assay type: binding, Pseudomonas aeruginosa PAO1; conditions: 25 °C
T3 sequence (Q9I6R6 29-352): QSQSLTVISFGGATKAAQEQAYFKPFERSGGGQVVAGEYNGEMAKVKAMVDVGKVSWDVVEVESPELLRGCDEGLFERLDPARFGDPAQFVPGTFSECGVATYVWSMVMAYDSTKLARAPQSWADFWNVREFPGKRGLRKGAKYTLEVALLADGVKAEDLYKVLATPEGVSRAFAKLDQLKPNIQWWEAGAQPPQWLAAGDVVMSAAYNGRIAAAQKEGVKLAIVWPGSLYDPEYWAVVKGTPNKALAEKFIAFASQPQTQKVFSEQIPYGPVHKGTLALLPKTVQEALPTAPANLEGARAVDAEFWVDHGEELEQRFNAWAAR

PA2592 [6] = biological target: T4, PA2592 (Pseudomonas aeruginosa, UniProt Q9I0P5); assay: biochemical; assay type: binding
T4 sequence (Q9I0P5 20-367): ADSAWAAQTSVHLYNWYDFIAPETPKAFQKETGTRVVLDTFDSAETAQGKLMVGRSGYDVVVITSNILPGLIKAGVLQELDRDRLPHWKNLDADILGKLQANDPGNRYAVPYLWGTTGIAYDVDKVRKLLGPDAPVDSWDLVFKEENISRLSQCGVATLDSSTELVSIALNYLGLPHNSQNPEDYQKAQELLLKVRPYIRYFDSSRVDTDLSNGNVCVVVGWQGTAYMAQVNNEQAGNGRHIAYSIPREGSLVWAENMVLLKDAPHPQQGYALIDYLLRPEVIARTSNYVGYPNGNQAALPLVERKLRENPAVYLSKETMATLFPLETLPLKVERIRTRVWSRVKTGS

PA3610 (potD) [7] = biological target: T5, PA3610 (potD) (Pseudomonas aeruginosa, UniProt Q9HY16); assay: DSF thermal shift ligand screening, PA3610; assay type: binding, Pseudomonas aeruginosa PAO1; conditions: Tm change vs ligand-free protein
PA3610 (potD) [8] = biological target: T5, PA3610 (potD); assay: Isothermal titration calorimetry, PA3610; assay type: binding, Pseudomonas aeruginosa PAO1; conditions: 25 °C
PA1342 (aatJ) [9] = biological target: T2, PA1342 (aatJ); assay: DSF thermal shift ligand screening, PA1342; assay type: binding, Pseudomonas aeruginosa PAO1; conditions: Tm change vs ligand-free protein
PA0222 [10] = biological target: T3, PA0222; assay type: binding; conditions: Tm change vs ligand-free protein
PA2592 [11] = biological target: T4, PA2592; assay: DSF thermal shift ligand screening, PA2592; assay type: binding, Pseudomonas aeruginosa PAO1; conditions: arrays PM2A, PM3B, PM5
PA2338 [12] = biological target: T6, PA2338 (Pseudomonas aeruginosa, UniProt Q9I1E0); assay: Isothermal titration calorimetry, PA2338; assay type: binding, Pseudomonas aeruginosa PAO1; conditions: 25 °C
PA4687 (hitA) [13] = assay type: binding, Pseudomonas aeruginosa PAO1
PA4687 (hitA) [14] = conditions: Tm change vs ligand-free protein
PA2338 [15] = biological target: T6, PA2338; assay: DSF thermal shift ligand screening, PA2338; assay type: binding, Pseudomonas aeruginosa PAO1; conditions: Tm change vs ligand-free protein
PA0283 (sbp) [16] = assay: DSF thermal shift ligand screening, PA0283; assay type: binding, Pseudomonas aeruginosa PAO1; conditions: Tm change vs ligand-free protein
PA0283 (sbp) [17] = assay: Isothermal titration calorimetry, PA0283; assay type: binding, Pseudomonas aeruginosa PAO1; conditions: 25 °C
PA1493 (cysP) [18] = biological target: T7, PA1493 (cysP) (Pseudomonas aeruginosa, UniProt Q9I3L9); assay: biochemical; assay type: binding, Pseudomonas aeruginosa PAO1
PA1493 (cysP) [19] = biological target: T7, PA1493 (cysP); conditions: Tm change vs ligand-free protein
PA1074 (braC) [20] = biological target: T8, PA1074 (braC) (Pseudomonas aeruginosa, UniProt P21175); assay type: binding, Pseudomonas aeruginosa PAO1; conditions: Tm change vs ligand-free protein
PA1074 (braC) [21] = biological target: T8, PA1074 (braC); assay: biochemical; assay type: binding, Pseudomonas aeruginosa PAO1

T6 sequence (Q9I1E0 23-436): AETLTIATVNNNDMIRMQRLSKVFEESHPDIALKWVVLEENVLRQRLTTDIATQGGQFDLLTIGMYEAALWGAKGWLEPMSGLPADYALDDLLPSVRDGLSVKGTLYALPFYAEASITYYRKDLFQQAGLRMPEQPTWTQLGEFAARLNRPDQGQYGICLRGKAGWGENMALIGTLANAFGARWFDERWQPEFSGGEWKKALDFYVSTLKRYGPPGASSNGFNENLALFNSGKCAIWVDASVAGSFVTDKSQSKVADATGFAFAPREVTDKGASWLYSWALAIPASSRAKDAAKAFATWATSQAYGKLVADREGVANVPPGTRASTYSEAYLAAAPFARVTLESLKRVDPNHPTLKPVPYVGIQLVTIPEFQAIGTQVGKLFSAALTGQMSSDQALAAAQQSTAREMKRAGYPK
T1 sequence (Q9HXC4 24-311): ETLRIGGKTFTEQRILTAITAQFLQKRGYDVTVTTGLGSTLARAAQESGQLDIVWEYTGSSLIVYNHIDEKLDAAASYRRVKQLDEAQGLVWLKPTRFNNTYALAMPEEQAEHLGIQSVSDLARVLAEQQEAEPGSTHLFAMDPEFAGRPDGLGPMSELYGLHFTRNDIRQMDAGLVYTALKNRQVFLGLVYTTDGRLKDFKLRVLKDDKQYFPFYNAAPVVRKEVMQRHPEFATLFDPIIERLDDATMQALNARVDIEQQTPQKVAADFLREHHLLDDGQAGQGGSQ
T5 sequence (Q9HY16 21-354): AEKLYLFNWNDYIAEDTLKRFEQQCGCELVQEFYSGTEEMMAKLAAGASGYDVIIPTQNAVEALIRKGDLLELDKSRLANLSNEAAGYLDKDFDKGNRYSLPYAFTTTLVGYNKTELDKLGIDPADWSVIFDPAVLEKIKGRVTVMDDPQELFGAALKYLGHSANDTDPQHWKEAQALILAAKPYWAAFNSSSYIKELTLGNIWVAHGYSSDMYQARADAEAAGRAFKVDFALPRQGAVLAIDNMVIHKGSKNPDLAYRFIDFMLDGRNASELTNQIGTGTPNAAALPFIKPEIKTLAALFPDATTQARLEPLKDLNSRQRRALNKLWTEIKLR
T8 sequence (P21175 27-373): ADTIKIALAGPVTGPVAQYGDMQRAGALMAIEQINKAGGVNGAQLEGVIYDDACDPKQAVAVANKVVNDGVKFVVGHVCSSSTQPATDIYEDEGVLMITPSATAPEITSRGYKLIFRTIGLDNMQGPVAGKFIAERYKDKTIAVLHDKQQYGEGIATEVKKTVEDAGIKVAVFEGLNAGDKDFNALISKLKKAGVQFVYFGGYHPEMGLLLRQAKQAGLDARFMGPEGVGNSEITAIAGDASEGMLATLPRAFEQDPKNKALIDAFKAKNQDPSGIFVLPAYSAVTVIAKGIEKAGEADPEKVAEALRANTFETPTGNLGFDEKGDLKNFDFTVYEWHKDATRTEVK
T7 sequence (Q9I3L9 23-332): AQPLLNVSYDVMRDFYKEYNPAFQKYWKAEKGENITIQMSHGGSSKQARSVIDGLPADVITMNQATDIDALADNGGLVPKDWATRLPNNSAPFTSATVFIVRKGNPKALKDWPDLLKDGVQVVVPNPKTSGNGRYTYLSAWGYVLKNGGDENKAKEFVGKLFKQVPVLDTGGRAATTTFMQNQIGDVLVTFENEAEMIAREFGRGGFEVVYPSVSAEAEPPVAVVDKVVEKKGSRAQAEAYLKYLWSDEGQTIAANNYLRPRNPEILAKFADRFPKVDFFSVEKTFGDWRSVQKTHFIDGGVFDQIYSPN

Compound: C[N+](C)(C)CC(=O)O [Glycine-betaine]
- Tm DSF (Tm increase) (PA3889 (opuCC) [1]): 3.2 °C
- Kd (PA3889 (opuCC) [2]; read-out: KD by ITC): 3000 ± 400 nM
- Chemotaxis response in words [3]: very strong taxis

- No Binding Observed by ITC (PA1342 (aatJ) [4]): No binding was observed
Compound: NC(=O)CC[C@H](N)C(=O)O [L-Gln]

- No Binding Observed by ITC (PA1342 (aatJ) [4]): No binding was observed
Compound: NC(=O)C[C@H](N)C(=O)O [L-Asn]

Compound: NCCCCNCCCN [Spermidine]
- No Binding Observed by ITC (PA0222 [5]): failed to bind; also recorded: no measurable affinity
- No Binding Observed by ITC (PA2592 [6]; PA2592, 25 °C): no binding
- Tm DSF (Tm increase) (PA3610 (potD) [7]): did not stabilize the protein
- No Binding Observed by ITC (PA3610 (potD) [8]): did not reveal any binding

Compound: N[C@@H](CC(=O)O)C(=O)O [L-Asp]
- Tm DSF (Tm increase) (PA1342 (aatJ) [9]): 10.9 °C

Compound: CC(N)CCC(=O)O (stereo not drawn) [4-aminovalerate, 4-aminovaleric acid]
- Tm DSF (Tm increase) (PA0222 [10]): 2.2 °C
- KD by ITC (PA0222 [5]): No binding
- No Binding Observed by ITC (PA0222 [5]): failed to bind

Compound: NCCCCN [Putrescine]
- No Binding Observed by ITC (PA0222 [5]): no measurable affinity
- Tm DSF (Tm increase) (PA2592 [11]): 4.4 °C
- Kd (PA2592 [6]): 31000 ± 4000 nM
- Tm DSF (Tm increase) (PA3610 (potD) [7]): 13 n. d.^2 °C
- Tm DSF (Tm increase) (PA3610 (potD) [7]; listed as putrescine): 13 °C
- Kd (PA3610 (potD) [8]; read-out: KD by ITC (converted)): 4800 ± 400 nM

Compound: NCCCC(=O)O [GABA, γ-amino-butyric acid]
- Tm DSF (Tm increase) (PA0222 [10]): 9.6 °C

Compound: OC[C@H]1O[C@H](O[C@H]2[C@H](O)[C@@H](O)C(O)O[C@@H]2CO)[C@H](O)[C@@H](O)[C@@H]1O (mixture of isomers) [Maltose]
- No Binding Observed by ITC (PA2338 [12]): absence of maltose binding

Compound: Iron(III) citrate
- No Binding Observed by ITC (PA4687 (hitA) [13]): did not show any binding
- Tm DSF (Tm increase) (PA4687 (hitA) [14]): no significant increases in Tm

Compound: C[N+](C)(C)C[C@H](O)CC(=O)[O-] [L-carnitine]
- Tm DSF (Tm increase) (PA3889 (opuCC) [1]): 2.8 °C
- KD by ITC (PA3889 (opuCC) [2]): No binding
- No Binding Observed by ITC (PA3889 (opuCC) [2]): no binding heats were observed
- Chemotaxis ([3]; capillary assay, 30 min): Yes Yes (Positive chemotaxis was considered when the number of bacterial cells per capillary was superior to 5000.)
- Chemotaxis response in words [3]: very strong taxis

Compound: NCCc1c[nH]cn1 [Histamine]
- No Binding Observed by ITC (PA0222 [5]): failed to bind; also recorded: no measurable affinity
- Tm DSF (Tm increase) (PA2592 [11]): 3.9 °C
- KD by ITC (PA2592 [6]; PA2592, 25 °C): No binding
- No Binding Observed by ITC (PA2592 [6]; PA2592, 25 °C): no binding
- No Binding Observed by ITC (PA3610 (potD) [8]): did not reveal any binding

Compound: OC[C@@H](O)[C@@H](O)[C@H](O)[C@H](O)CO [Mannitol]
- Tm DSF (Tm increase) (PA2338 [15]): 4.1 °C
- Kd (PA2338 [12]; read-out: KD by ITC): 830 ± 200 nM

Compound: O=S(O)(O)=S [Thiosulphate]
- Tm DSF (Tm increase) (PA0283 (sbp) [16]): 2.1 °C
- KD by ITC (PA0283 (sbp) [17]): No binding No binding
- Kd (PA1493 (cysP) [18]): 290 ± 200 nM
- Chemotaxis response in words [3]: moderate taxis
- Tm DSF (Tm increase) (PA1493 (cysP) [19]): 7.4 °C

Compound: CC(C)C[C@H](N)C(=O)O [L-Leu]
- Tm DSF (Tm increase) (PA1074 (braC) [20]): 4.0 12.1 10.1 10.2 3.0 3.5 5.0 3.8 4.2 °C
- Kd (PA1074 (braC) [21]): 290 nM
